# Where two headings read alike, the source gives them in different places.
# Key:
# [1] = tested on: M. tuberculosis H37Rv; experiment: Bacteria killing activity by CFU counting, aerobic incubation; format: cell-based, Mycobacterium tuberculosis
# Experimental: FIG. 8 illustrates the colony forming units (CFUs) recovered from macrophages at different time points after infection with M. tuberculosis H37Rv. Cells were infected and treated with the indicated amount of pyridopyrimidione compound 71 (4 to 20 μM);
# The bacteria killing activity of compound 71 was determined using the CFU counting method. Two-fold serial dilutions of compound 71 were incubated aerobically with H37Rv for 21 days at 37° C.
# [2] = tested on: M. tuberculosis H37Rv-GFP inside Raw264.7 macrophages
# [3] = tested on: M. tuberculosis H37Rv-GFP; experiment: microbe, parasite or virus in culture; details: Mycobacterium tuberculosis, read-out: minimal inhibitory concentration (MIC)
# [4] = tested on: M. tuberculosis H37Rv-GFP inside Raw264.7 macrophages; experiment: microbe, parasite or virus in culture; details: Mycobacterium tuberculosis, 120 h, read-out: minimal inhibitory concentration (MIC)
# [5] = tested on: M. tuberculosis H37Rv in mouse macrophages; experiment: CFU determination in infected mouse macrophages; format: cell-based, Mycobacterium tuberculosis; details: mouse cells, seven days after infection
# [6] = tested on: M. tuberculosis H37Rv in human macrophages; format: cell-based, Mycobacterium tuberculosis
# [7] = tested on: M. tuberculosis in primary macrophages; format: cell-based, Mycobacterium tuberculosis
# [8] = tested on: BJ- Skin; experiment: Cytotoxicity assay (resazurin, 5 days); format: cell-based
# Experimental: (§1) In order to address compound toxicity, seven cell lines originating from different body tissues were cultivated in the presence of 3-fold dilutions of compounds starting from 100 μM. After 5 days of culture, cell viability was assessed by the resazurin test. Briefly, cells were incubated with 10 μg/mL of resazurin (Sigma-Aldrich St. Louis, Mo.) for 4 h at 37° C. under 5% CO2. Resofurin fluorescence (RFU) was measured as indicated above. Percentage of toxicity on cells was calculated as follows: Cytotoxicity (%)=(RFUDMSO−RFUBlank)−(RFUcompound−RFUblank)/(RFUDMSO−RFUBlank)×100. Percentage of cytotoxicity was plotted against compound concentration and the minimal toxic concentration (MTC50) was determined by non-linear regression analysis as the lowest compound concentration where fifty percent toxicity was observed on the corresponding cell line.
# (§2) To address the issue of toxicity, compound 133 was tested on a panel of seven cell lines derived from different body tissue. Cells were incubated with increasing amounts of compound and cell viability was assessed with resazurin after 5 days of co-incubation. Percentage of cytotoxicity was determined by taking as a reference the resofurin fluorescence measured by DMSO containing wells. The concentration where fifty percent of the cells died was defined as the Minimal Toxic Concentration (MTC50).
# [9] = tested on: HEK293- Kidney; experiment: Cytotoxicity assay (resazurin, 5 days); format: cell-based; details: HEK293, 5 days
# Experimental: as §1, §2
# [10] = tested on: HepG2-Hepatocytes; experiment: Cytotoxicity assay (resazurin, 5 days); format: cell-based; details: HepG2, 5 days
# Experimental: as §1, §2
# [11] = tested on: Jurkat -T-cell; experiment: Cytotoxicity assay (resazurin, 5 days); format: cell-based
# Experimental: as §1, §2
# [12] = tested on: MRC5- Lung; experiment: Cytotoxicity assay (resazurin, 5 days); format: cell-based; details: MRC5, 5 days
# Experimental: as §1, §2
# [13] = tested on: SK-N-SH -Brain; experiment: Cytotoxicity assay (resazurin, 5 days); format: cell-based
# Experimental: as §1, §2
# [14] = tested on: THP-1 - Monocytes; experiment: Cytotoxicity assay (resazurin, 5 days); format: cell-based; details: THP-1, 5 days
# Experimental: as §1, §2
# [15] = tested on: seven cell lines derived from different body tissue; experiment: Cytotoxicity assay on a panel of seven cell lines; format: cell-based; details: all tested cell lines, 5 days of co-incubation
# Experimental: as §1, §2
# [16] = tested on: M. tuberculosis clinical isolates; format: cell-based, Mycobacterium tuberculosis
# [17] = tested on: M. tuberculosis H37Rv; experiment: MIC on laboratory strain, in vitro bacterial growth assay; format: cell-based; details: Mycobacterium tuberculosis
# [18] = tested on: M. tuberculosis H37Ra; experiment: as above; format: cell-based; details: Mycobacterium tuberculosis
# [19] = tested on: BCG Pasteur-Tokyo; experiment: microbe, parasite or virus in culture; format: cell-based; details: Mycobacterium tuberculosis variant bovis BCG
# [20] = tested on: M. smegmatis mc^2 155; experiment: MIC on fast growing mycobacteria; format: cell-based, Mycobacterium smegmatis
# [21] = tested on: Acinetobacter baumannii, Escherichia coli, Enterobacter cloacae, E. aerogenes, Klebsiella oxytoca, Pseudomonas aeruginosa, Salmonella enteridis, Vibrio mimicus; experiment: Antimicrobial spectrum on clinical isolates, Gram-negative; format: cell-based, Gram-negative bacteria
# [22] = tested on: Staphylococcus aureus, S. epidermis, S. capitis, S. xylosus, Micrococcus luteus, Listeria innocua, Lactobacillus gallinarum, group G Streptococcus …; experiment: Antimicrobial spectrum on clinical isolates, Gram-positive; format: cell-based, Gram-positive bacteria
# [23] = tested on: C. striatum, C. jeikeium; experiment: Antimicrobial spectrum on clinical isolates, Corynebacterium; format: cell-based
# [24] = tested on: Candida albicans, C. glabrata, C. parapsilosis; experiment: Antimicrobial spectrum on clinical isolates, Fungi; format: cell-based
# [25] = tested on: M. tuberculosis H37Rv-GFP; experiment: in vitro; details: Mycobacterium tuberculosis
# [26] = tested on: M. tuberculosis H37Rv-GFP inside Raw264.7 macrophages; experiment: in vitro; details: mouse
# [27] = tested on: Primary BMDM; experiment: Cytotoxicity assay (resazurin, 5 days)
# [28] = tested on: Primary human macrophages; experiment: Cytotoxicity assay (resazurin, 5 days)
smiles,measurement,setting,value
"COc1cccn2c(=O)c(CO)c(Nc3ccc4ncccc4c3)nc12 [compound 71, 3-(Hydroxymethyl)-9-methoxy-2-(quinolin-6-ylamino)-4H-pyrido[1,2-a]pyrimidin-4-one]",growth of M. tuberculosis (CFU),"[1]; 0.04 to 20 μM, H37Rv, 21 days at 37° C.",strongly inhibited the growth of M. tuberculosis
same,bacteria killing activity (CFU),[1]; after 2 days of incubation,fast bacteria killing activity even at the lowest concentration
CNC(=O)c1c(Nc2ccc(F)c(Cl)c2)nc2c(OC)cccn2c1=O,melting point,,218 °C (dec.)
"NNC(=O)c1ccncc1 [INH, isoniazid]",Calculated MICs from the image based quantification of the infection ratio,[2],0.16 ± 0.05 µg/mL
same,cells that appear to be infected,[2],10%
same,MIC,[3],0.1 µg/mL
same,MIC,[4],0.1 µg/mL
CO[C@H]1/C=C/O[C@@]2(C)Oc3c(C)c(O)c4c(O)c(c(/C=N/N5CCN(C)CC5)c(O)c4c3C2=O)NC(=O)/C(C)=C\C=C\[C@H](C)[C@H](O)[C@@H](C)[C@@H](O)[C@@H](C)[C@H](OC(C)=O)[C@@H]1C [rifampin],Calculated MICs from the image based quantification of the infection ratio,[2],2.4 ± 1.3 µg/mL
same,cells that appear to be infected,[2],10%
"Cc1cccn2c(=O)c(CO)c(Nc3cccc(Cl)c3)nc12 [compound 232, 2-(3-Chlorophenylamino)-3-(hydroxymethyl)-9-methyl-4H-pyrido[1,2-a]pyrimidin-4-one]",decrease in the number of CFUs,[5],ten-fold decrease in the number of CFUs
same,decrease in the number of CFUs,[6],ten-fold decrease in the number of CFUs
same,bacterial load and host cell abundance,[7],harbored fewer bacteria compared to DMSO control and were more abundant
COc1cccn2c(=O)c(Br)c(Nc3ccc4ncccc4c3)nc12,melting point,,248 to 249 °C
"Cc1cccn2c(=O)c(C=O)c(Nc3cccc(Cl)c3)nc12 [compound 133, 2-(3-Chlorophenylamino)-9-methyl-4-oxo-4H-pyrido[1,2-a]pyrimidine-3-carbaldehyde]",Range of MTC50,[8],>100 µM
same,Range of MTC50,[9],>100 µM
same,Range of MTC50,[10],>100 µM
same,Range of MTC50,[11],>100 µM
same,Range of MTC50,[12],>100 µM
same,Range of MTC50,[13],>100 µM
same,Range of MTC50,[14],>100 µM
same,"cytotoxicity (Minimal Toxic Concentration, MTC50)",[15],> 100 µM
same,Range of MICs for multiple strains (μM),"[16]; Drug Sensitive, Tissue, 2 isolates",2.5-5^ μM
same,Range of MICs for multiple strains,"[16]; INH^R RIF^R Strep^R, Sputum, 3 isolates",0.3 to 1.2 µM
same,Range of MICs for multiple strains,"[16]; INH^R RIF^R Strep^R, Tissue, 1 isolate",1.2 µM
same,Range of MICs for multiple strains,"[16]; MDR, Sputum, 3 isolates",0.3 to 1.2 µM
same,Range of MICs for multiple strains,"[16]; MDR, Tissue, 1 isolate",1.2 µM
same,Range of MICs for multiple strains,"[16]; RIF^R, Sputum, 1 isolate",2.5 µM
same,Range of MICs for multiple strains,"[16]; RIF^R, Tissue, 1 isolate",1.2 µM
same,Range of MICs for multiple strains,"[16]; XDR, Sputum, 4 isolates",0.6 to 2.5 µM
same,Range of MICs for multiple strains (μM),"[16]; XDR, Tissue, 5 isolates",0.3-5^ μM
same,MIC,[17],2 µM
same,MIC,[18],2 µM
same,MIC,[19],2 µM
same,MIC,[20],no effect
same,MIC,"[20]; Mycolicibacterium smegmatis, MC^2155, read-out: MIC",> 100 µM
same,Antibacterial activity & Specificity,[21],NE (NE: No effect up to 100 μg/mL equivalent to 320 μM)
same,Antibacterial activity & Specificity,[22],NE (NE: No effect up to 100 μg/mL equivalent to 320 μM)
same,Antibacterial activity & Specificity,[23],NE (NE: No effect up to 100 μg/mL equivalent to 320 μM)
same,Antibacterial activity & Specificity,[24],NE (NE: No effect up to 100 μg/mL equivalent to 320 μM)
same,decrease in the number of CFUs,[5],ten-fold decrease in the number of CFUs
same,decrease in the number of CFUs,[6],ten-fold decrease in the number of CFUs
same,selectivity ratio,[25],> 50
same,selectivity ratio,[26],> 50
same,Range of MTC50,[27],>100 µM
same,Range of MTC50,[28],>100 µM
COC(=O)c1ccc(Nc2nc3c(OC)cccn3c(=O)c2CO)nc1,melting point,,231 to 232 °C (dec.)
COc1cccn2c(=O)c(CO)c(Nc3ccc(F)c(F)c3)nc12,melting point,,231 °C (dec.)
Cn1cnc2ccc(Nc3nc4c(F)cccn4c(=O)c3CO)cc21,melting point,,209 °C (dec.)
